In PMC3849007 (Journal of Experimental & Clinical Cancer Research : CR, 2013):

Tests used:
M1 muscarinic receptor = target: T1, M1 muscarinic receptor (Homo sapiens, UniProt P11229); test: Cerep ExpresSProfile receptor screen, M1; conditions: data not shown, read-out: % inhibition of ligand binding, M1 muscarinic receptor
T1 construct: purchased Cerep (ExpresSProfile screen, contract service)
Description: (§1) To investigate the molecular bases of cardio toxicity, the agent was tested for its potential to interact with a panel of 54 pharmacological receptors, the majority being human recombinant receptors (Cerep ExpresSProfile screen) (http://www.cerep.fr).

telomerase = target: telomerase; parameters: method as in PMID 15304549; conditions: Trap assay; read-out: telomerase inhibition IC50; cited from earlier work
[1] = test system: Telomere dysfunction Induced Foci in BJ-EHLT fibroblasts; test: TIF analysis (γH2AX/TRF1 co-localization); assay type: cell-based, human; conditions: 24 hrs; for number of TIFs per nucleus: mean
Description: (§2) Cells were fixed in 2% formaldehyde and permeabilized in 0.25% Triton X100 in PBS for 5 min at room temperature. For immunolabeling, cells were incubated with primary antibody, then washed in PBS and incubated with the secondary antibodies. The following primary antibodies were used: pAb and mAb anti-TRF1 (Abcam Ltd.; Cambridge UK); mAb (Upstate, Lake Placid, NY) and pAb anti-γH2AX (Abcam). The following secondary antibody were used: TRITC conjugated Goat anti Rabbit, FITC conjugated Goat anti Mouse (Jackson ImmunoResearch Europe Ltd., Suffolk, UK). Fluorescence signals were recorded by using a Leica DMIRE2 microscope equipped with a Leica DFC 350FX camera and elaborated by a Leica FW4000 deconvolution software (Leica, Solms, Germany). This system permits to focus single planes inside the cell generating 3D high-resolution images. For quantitative analysis of γH2AX positivity, 200 cells on triplicate slices were scored. For TIF’s analysis, in each nucleus a single plane was analyzed and at least 50 nuclei per sample were scored.

[2] = test system: h-Tel (anti-parallel) quadruplex; test: CD thermal unfolding of h-Tel quadruplex; assay type: binding, human; conditions: for CD study thermal stability ∆Tm: compared to h-Tel without bound ligand (Tm 70 ± 3); for CD study thermal stability Tm: h-Tel 4 μM with 3.5 mol.equiv. ligand, K+ solution, unfolding at 290 nm
Description: CD spectra were recorded on an Applied Photophysics Pi-Star-180 spectrophotometer (Applied Photophysics Ltd, Surrey, UK). The optical system was configured with a 75 W Xe lamp, circular light polarizer and end-mounted photomultiplier. The instrument had previously been calibrated with (D)-camphorsulfonic acid. Temperature was regulated using a Neslab RTE-300 circulating programmable water bath (Neslab Inc). CD spectra were recorded at 298 K in a 10 mm path length cell over a wavelength range of 215–345 nm in steps of either 1 0r 2 nm, with 3 nm entrance/exit slit widths: the number of counts was set to 10,000 with adaptive sampling set to 500,000. The spectra were corrected by subtracting the spectrum of the same buffer solution of 100 mM potassium chloride and 10 mM potassium phosphate at pH 7.0. Annealing and melting profiles were recorded using a thermoelectric temperature controller (Melcor) on 4 μM DNA samples with and without 3.5 mol.equiv. of ligands using 0.5 K temperature increments and a cooling or heating rate of 0.2 K/min over the temperature range 298-368 K.
This analysis was extended to examine the effects of ligand binding on thermal stability by measuring the unfolding curves at 290 nm of the complexes formed in K^+ solution, corresponding to the CD spectra shown in Figure 4a. Monitoring the thermal unfolding transition for h-Tel produces a sigmoidal unfolding curve with a transition mid-point Tm value of 72 ± 3°C (Figure 4c). All three ligands show significant effects in enhancing the stability of the quadruplex by shifting the Tm values to higher temperatures (∆Tm ~ 15-19°C compared to h-Tel without bound ligands) (Table 1).

[3] = test system: h-Tel quadruplex (Q) DNA, 5'-biotin-d[AG3(T2AG3)3] (DNA, G4) AGGGTTAGGGTTAGGGTTAGGG; test: surface plasmon resonance; conditions: 200 mM KCl; 10 mM HEPES, 3 mM EDTA, 0.01% P20, pH 7.4
M3 muscarinic receptor = target: T2, M3 muscarinic receptor (Homo sapiens, UniProt P20309); test: Cerep ExpresSProfile receptor screen, M3; conditions: data not shown, read-out: % inhibition of ligand binding, M3 muscarinic receptor
T2 construct: purchased Cerep (ExpresSProfile screen, contract service)
T2 sequence (P20309 whole entry): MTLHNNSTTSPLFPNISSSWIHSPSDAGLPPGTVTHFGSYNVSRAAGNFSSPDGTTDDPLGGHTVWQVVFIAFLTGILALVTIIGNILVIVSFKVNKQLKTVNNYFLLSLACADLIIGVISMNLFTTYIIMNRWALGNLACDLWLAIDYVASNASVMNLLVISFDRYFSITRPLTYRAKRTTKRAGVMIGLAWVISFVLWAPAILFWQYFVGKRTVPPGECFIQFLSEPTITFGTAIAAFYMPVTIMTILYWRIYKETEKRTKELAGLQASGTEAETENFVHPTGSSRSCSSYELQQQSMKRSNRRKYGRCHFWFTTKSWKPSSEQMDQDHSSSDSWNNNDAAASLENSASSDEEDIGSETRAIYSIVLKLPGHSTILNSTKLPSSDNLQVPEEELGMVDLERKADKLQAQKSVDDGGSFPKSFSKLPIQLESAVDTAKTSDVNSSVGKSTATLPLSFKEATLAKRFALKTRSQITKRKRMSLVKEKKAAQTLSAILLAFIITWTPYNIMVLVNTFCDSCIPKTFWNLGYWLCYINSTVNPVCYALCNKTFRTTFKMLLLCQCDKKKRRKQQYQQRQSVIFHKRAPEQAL
Description: as §1

NCI60 panel = NCI60 panel growth inhibition; assay type: cell-based, human
[4] = test system: telomere aberrations in BJ-EHLT fibroblasts; test: Telomere FISH on metaphase spreads; assay type: cell-based, human; conditions: 0.5 μM, 72 hrs
Description: For metaphase chromosome preparation cells were treated with demecolcine (Sigma, Milan, Italy) 0.1 mg/ml for 4 h and then harvested and washed in 75 mM KCl for 5 min at 37°C. After centrifugation cells were fixed in MeOH/acetic acid 3:1 overnight and then spread on slides. Hybridization with rhodamine-coupled PNA was performed as described. For each sample 20 metaphases per slice on triplicate were scored. Images of the metaphases were captured with a 100 × objective.

[5] = test system: γH2AX in BJ-EHLT fibroblasts; test: Immunofluorescence for γH2AX (DNA damage response); assay type: cell-based, human; conditions: 0.5 μM, 24 hrs
Description: as §2

BJ-hTERT fibroblasts = test: Proliferation assay, normal telomerised fibroblasts; assay type: cell-based, human; conditions: 0.5 μM, culture day 2 to 8
Description: BJ fibroblasts expressing hTERT (BJ-hTERT) or hTERT and SV40 early region (BJ-EHLT), were obtained as previously reported. Cells were grown in Dulbecco Modified Eagle Medium (D-MEM, Invitrogen Carlsbad, CA, USA) supplemented with 10% fetal calf serum, 2 mM L-glutamin and antibiotics.
5 × 10^4 cells were seeded in 60-mm Petri plates (Nunc, MasciaBrunelli, Milano, Italy) and 24 h after plating, 0.5 μM of freshly dissolved compound was added to the culture medium. Cell counts (Coulter Counter, Kontron Instruments, Milano, Italy) and viability (trypan blue dye exclusion) were determined daily, from day 2 to day 8 of culture.

T1 sequence (P11229 whole entry): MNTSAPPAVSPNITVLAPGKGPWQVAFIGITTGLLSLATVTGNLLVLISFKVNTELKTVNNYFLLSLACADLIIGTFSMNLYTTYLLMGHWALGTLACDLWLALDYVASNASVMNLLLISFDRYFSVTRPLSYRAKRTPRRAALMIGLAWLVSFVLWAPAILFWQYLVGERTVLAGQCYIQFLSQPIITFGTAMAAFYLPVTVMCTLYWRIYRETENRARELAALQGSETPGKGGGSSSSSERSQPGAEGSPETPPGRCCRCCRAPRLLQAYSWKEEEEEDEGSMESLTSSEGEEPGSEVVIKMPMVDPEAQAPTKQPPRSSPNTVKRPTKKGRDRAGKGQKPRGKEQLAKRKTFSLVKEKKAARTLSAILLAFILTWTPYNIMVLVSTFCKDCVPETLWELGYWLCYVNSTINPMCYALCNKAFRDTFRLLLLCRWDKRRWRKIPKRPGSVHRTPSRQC

Row | Structure (SMILES) | inhibition at 1 µM (M1 muscarinic receptor) | IC50 (telomerase) | number of TIFs per nucleus [1] | CD study thermal stability ∆Tm [2] | CD study thermal stability Tm [2] | K [3] | inhibition at 1 µM (M3 muscarinic receptor) | percentage of TIF-positive cells ([1]; cells with more than four γH2AX/TRF1 co-localizations) | GI50 (NCI60 panel; Homo sapiens, NCI data, read-out: Mean GI50 value from the NCI60 panel) | effect on cell proliferation in a panel of different histotype tumor cell lines (NCI60 panel; several human cancer cell lines) | telomere aberrations (telomere doublets, sister telomere fusions) [4] | percentage of cells positive for γH2AX [5] | inhibition of cell proliferation in normal telomerized fibroblasts (BJ-hTERT fibroblasts)
1 | Cc1cc2c3c([n+](C)c4ccc(F)cc4c3c1)-c1cc(F)ccc1N2C [Compound 1, 3,11-Difluoro-6,8,13-trimethyl-8H-quino[4,3,2-kl]acridinium metho-sulfate] | > 95% | 0.33 µM | ca. eight | 16 °C | 86 ± 3 °C | 8.3e+06 M⁻¹ | > 95% | – | – | – | – | – | –
2 | CC(=O)Nc1ccc2c(c1)c1cccc3c1c([n+]2C)-c1ccccc1N3C [Compound 3, 3-acetylamino-8,13-dimethyl-8H-quino[4,3,2-kl]-acridinium iodide] | – | – | six | 15 °C | 85 ± 3 °C | 8e+06 M⁻¹ | – | significant but less pronounced effect | 81.3 µM | maintained an anti-proliferative effect | lower effect | less potent than the lead compound | did not induce inhibition of cell proliferation
